pKi: −log10 of the molar value.
Target: BTK (Homo sapiens (Human), UniProt Q06187)
Test: BTK LC3K biochemical assay (LabChip 3000 mobility shift)
Procedure: Formula I compounds were tested by biochemical Btk, Kinase assays (Example 901).
Alternatively, an in vitro BTK biochemical assay that quantifies BTK-catalyzed tyrosine phosphorylation of a synthetic peptide, as detected using a LabChip 3000® microfluidic mobility shift instrument (PerkinElmer; Waltham, Mass.) can be conducted. The substrate peptide, ProfilerPro® FL-Peptide 22 (Product No. 760366; PerkinElmer), has an amino-terminal fluorescent 5-carboxyfluorescein group (5-FAM) and a tyrosine residue that can be phosphorylated by BTK: 5-FAM-[…]-NH2. Purified recombinant human full-length catalytically active BTK protein was obtained from Carna Biosciences (Product No. 08-080; Kobe, Japan).
BTK assay mixtures contained 50 mM 4-(2-hydroxyethyl)-1-piperazineethanesulfonic acid buffer (pH 7.5), 10 mM magnesium chloride, 0.01% Triton X-100, 1 mM dithiothreitol, 1 μM FL-Peptide 22, 45 μM ATP, 1 nM BTK, and a titration of up to 10,000 nM test article in a final concentration of 0.5% (volume to volume [v/v]) DMSO. In the titration experiments, each of the test article concentrations (10 or 12 concentrations) was tested in duplicate. Blank reactions contained ATP, peptide, and DMSO, but no BTK or test article, whereas uninhibited control reactions contained ATP, peptide, BTK, and DMSO, but no test article.
Reactions were incubated for 30 minutes at room temperature (22° C.-23° C.) in a final volume of 20 μL per well in 384-well plates. Ten microliters of BTK plus peptide mixture were added to 10 μL of a mixture of ATP and test article (or vehicle) to initiate the reactions. Reactions were stopped by adding 10 μL of 0.25 M ethylenediaminetetraacetic acid (EDTA) at pH 8.0 to each well. In each reaction, the residual FL-Peptide 22 substrate (S) and the phospho-peptide product (P) generated were separated using the LabChip 3000 instrument. Electrophoretic separation of molecules of product from molecules of substrate was achieved using downstream and upstream voltages of −500 and −2250 V, respectively, at an operating pressure of −1 psi. The 5-FAM group present on both the substrate and product peptides was excited at 488 nm; the fluorescence at 530 nm was detected and the peak heights were reported.
Data Analysis: The extent (or percent) of conversion of substrate to product was calculated from the corresponding peak heights in the electropherogram using HTS Well Analyzer software, version 5.2 (PerkinElmer) and the following equation: conversion=[(P)÷(S+P)]×100 where S and P represent the peak heights of the substrate and product, respectively. After any baseline signal from blank wells containing no BTK was subtracted from the signal of all test wells, the % conversion data were converted to fractional activity as shown in Equation 2, where vi and vo are the % conversion in the presence and absence, respectively, of test article. The % conversion observed in the uninhibited control reaction wells containing BTK and DMSO vehicle, but no test article, was defined to have fractional activity=1 (in this case with no test article present, vi=vo), whereas blank wells with no BTK were defined as having fractional activity=0. Fractional activity was plotted against test article concentration and the data were fit using Genedata Screener software (Genedata; Basel, Switzerland) to the tight-binding apparent inhibition constant (Ki^app) Morrison equation [Williams, J. W. and Morrison, J. F. (1979) The kinetics of reversible tight-binding inhibition. Methods Enzymol 63:437-67]. The following equation was used to calculate fractional activity and Ki^app:
[formula] where [E]T and [I]T are the total concentrations of active enzyme (fixed value of 0.001 μM=1 nM) and test article (e.g., inhibitor; the varied parameter), respectively.

Sequence of BTK (Q06187 whole entry): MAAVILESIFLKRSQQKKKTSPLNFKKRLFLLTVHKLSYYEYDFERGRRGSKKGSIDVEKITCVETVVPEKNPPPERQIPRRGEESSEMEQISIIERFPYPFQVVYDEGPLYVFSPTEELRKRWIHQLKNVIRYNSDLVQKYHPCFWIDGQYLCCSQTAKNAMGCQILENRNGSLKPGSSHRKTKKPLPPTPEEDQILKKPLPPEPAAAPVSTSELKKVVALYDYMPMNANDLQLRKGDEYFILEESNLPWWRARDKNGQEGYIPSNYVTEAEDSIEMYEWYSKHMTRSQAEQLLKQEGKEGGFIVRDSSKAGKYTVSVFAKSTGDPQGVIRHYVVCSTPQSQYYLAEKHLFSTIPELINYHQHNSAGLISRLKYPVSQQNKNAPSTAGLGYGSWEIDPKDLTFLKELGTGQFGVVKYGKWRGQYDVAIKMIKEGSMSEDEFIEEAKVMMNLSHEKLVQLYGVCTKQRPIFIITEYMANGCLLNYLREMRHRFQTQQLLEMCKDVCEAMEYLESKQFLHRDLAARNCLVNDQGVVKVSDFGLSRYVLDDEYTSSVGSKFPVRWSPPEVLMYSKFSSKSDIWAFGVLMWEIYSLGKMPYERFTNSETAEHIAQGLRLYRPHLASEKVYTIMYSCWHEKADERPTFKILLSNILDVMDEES

| Compound | pKi |
| --- | --- |
| C=CC(=O)NCCOc1cccc(Nc2cc(-c3ccnc(N4CCn5c(cc6c5CC(C)(C)C6)C4=O)c3CO)cn(C)c2=O)n1 [Compound 101, N-{2-[(6-{[5-(2-{4,4-dimethyl-9-oxo-1,10-diazatricyclo[6.4.0.0^2,6]dodeca-2(6),7-dien-10-yl}-3-(hydroxymethyl)pyridin-4-yl)-1-methyl-2-oxo-1,2-dihydropyridin-3-yl]amino}pyridin-2-yl)oxy]ethyl}prop-2-enamide] | 9.10 |
| Cn1cc(-c2ccnc(N3CCn4c(cc5c4CC(C)(C)C5)C3=O)c2CO)cc(Nc2ccnc(N3CCC(C(=O)NCC#N)C3)n2)c1=O (stereo not shown) [Compound 102, N-(cyanomethyl)-1-(4-{[5-(2-{4,4-dimethyl-9-oxo-1,10-diazatricyclo[6.4.0.0^2,6]dodeca-2(6),7-dien-10-yl}-3-(hydroxymethyl)pyridin-4-yl)-1-methyl-2-oxo-1,2-dihydropyridin-3-yl]amino}pyrimidin-2-yl)pyrrolidine-3-carboxamide] | 9.06 |
| C=CC(=O)NCCOc1cccc(Nc2cc(-c3ccnc(-n4ncc5cc(C(C)(C)C)cc(F)c5c4=O)c3CO)cn(C)c2=O)n1 [Compound 104, N-[2-[[6-[[5-[2-(6-tert-butyl-8-fluoro-1-oxo-phthalazin-2-yl)-3-(hydroxymethyl)-4-pyridyl]-1-methyl-2-oxo-3-pyridyl]amino]-2-pyridyl]oxy]ethyl]prop-2-enamide] | 9.04 |
| C=CC(=O)NCCNc1cccc(Nc2cc(-c3cc(F)cc(-n4ncc5c6c(sc5c4=O)CCCC6)c3CO)cn(C)c2=O)n1 [Compound 105, N-[2-[[6-[[5-[5-fluoro-2-(hydroxymethyl)-3-(4-oxo-6,7,8,9-tetrahydrobenzothiopheno[2,3-d]pyridazin-3-yl)phenyl]-1-methyl-2-oxo-3-pyridyl]amino]-2-pyridyl]amino]ethyl]prop-2-enamide] | 9.61 |
| CC#CC(=O)NCCOc1cccc(Nc2cc(-c3cc(F)cc(-n4ncc5c6c(sc5c4=O)CCCC6)c3CO)cn(C)c2=O)n1 [Compound 106, N-[2-[[6-[[5-[5-fluoro-2-(hydroxymethyl)-3-(4-oxo-6,7,8,9-tetrahydrobenzothiopheno[2,3-d]pyridazin-3-yl)phenyl]-1-methyl-2-oxo-3-pyridyl]amino]-2-pyridyl]oxy]ethyl]but-2-ynamide] | 9.51 |
| C=CC(=O)N[C@@H](C)COc1cccc(Nc2cc(-c3ccnc(N4CCn5c(cc6c5CC(C)(C)C6)C4=O)c3CO)cn(C)c2=O)n1 [Compound 107, N-[(1S)-2-[[6-[[5-[2-(7,7-dimethyl-4-oxo-1,2,6,8-tetrahydrocyclopenta[3,4]pyrrolo[3,5-b]pyrazin-3-yl)-3-(hydroxymethyl)-4-pyridyl]-1-methyl-2-oxo-3-pyridyl]amino]-2-pyridyl]oxy]-1-methyl-ethyl]prop-2-enamide] | 9.21 |
| C=CC(=O)N[C@@H](C)COc1cccc(Nc2cc(-c3cc(F)cc(-n4ncc5c6c(sc5c4=O)CCCC6)c3CO)cn(C)c2=O)n1 [Compound 108, N-[(1S)-2-[[6-[[5-[5-fluoro-2-(hydroxymethyl)-3-(4-oxo-6,7,8,9-tetrahydrobenzothiopheno[2,3-d]pyridazin-3-yl)phenyl]-1-methyl-2-oxo-3-pyridyl]amino]-2-pyridyl]oxy]-1-methyl-ethyl]prop-2-enamide] | 8.59 |
| C=CC(=O)NCCN(C)c1cccc(Nc2cc(-c3cc(F)cc(-n4ncc5c6c(sc5c4=O)CCCC6)c3CO)cn(C)c2=O)n1 [Compound 111, N-[2-[[6-[[5-[5-fluoro-2-(hydroxymethyl)-3-(4-oxo-6,7,8,9-tetrahydrobenzothiopheno[2,3-d]pyridazin-3-yl)phenyl]-1-methyl-2-oxo-3-pyridyl]amino]-2-pyridyl]-methyl-amino]ethyl]prop-2-enamide] | 9.31 |
| C=CC(=O)N(C)CCOc1cccc(Nc2cc(-c3ccnc(N4CCn5c(cc6c5CC(C)(C)C6)C4=O)c3CO)cn(C)c2=O)n1 [Compound 112, N-[2-[[6-[[5-[2-(7,7-dimethyl-4-oxo-1,2,6,8-tetrahydrocyclopenta[3,4]pyrrolo[3,5-b]pyrazin-3-yl)-3-(hydroxymethyl)-4-pyridyl]-1-methyl-2-oxo-3-pyridyl]amino]-2-pyridyl]oxy]ethyl]-N-methyl-prop-2-enamide] | 8.76 |
| C=CC(=O)N(C)CCOc1cccc(Nc2cc(-c3cc(F)cc(-n4ncc5c6c(sc5c4=O)CCCC6)c3CO)cn(C)c2=O)n1 [Compound 113, N-[2-[[6-[[5-[5-fluoro-2-(hydroxymethyl)-3-(4-oxo-6,7,8,9-tetrahydrobenzothiopheno[2,3-d]pyridazin-3-yl)phenyl]-1-methyl-2-oxo-3-pyridyl]amino]-2-pyridyl]oxy]ethyl]-N-methyl-prop-2-enamide] | 9.84 |
| C=CC(=O)N[C@H]1CCCN(c2cccc(Nc3cc(-c4cc(F)cc(-n5ncc6c7c(sc6c5=O)CCCC7)c4CO)cn(C)c3=O)n2)C1 [Compound 115, N-[(3S)-1-[6-[[5-[5-fluoro-2-(hydroxymethyl)-3-(4-oxo-6,7,8,9-tetrahydrobenzothiopheno[2,3-d]pyridazin-3-yl)phenyl]-1-methyl-2-oxo-3-pyridyl]amino]-2-pyridyl]-3-piperidyl]prop-2-enamide] | 8.67 |
| C=C(C#N)C(=O)NCCOc1cccc(Nc2cc(-c3cc(F)cc(-n4ncc5c6c(sc5c4=O)CCCC6)c3CO)cn(C)c2=O)n1 [Compound 117, 2-cyano-N-[2-[[6-[[5-[5-fluoro-2-(hydroxymethyl)-3-(4-oxo-6,7,8,9-tetrahydrobenzothiopheno[2,3-d]pyridazin-3-yl)phenyl]-1-methyl-2-oxo-3-pyridyl]amino]-2-pyridyl]oxy]ethyl]prop-2-enamide] | 9.24 |
| CCC(=O)NCCOc1cccc(Nc2cc(-c3ccnc(N4CCn5c(cc6c5CC(C)(C)C6)C4=O)c3CO)cn(C)c2=O)n1 [Compound 119, N-{2-[(6-{[5-(2-{4,4-dimethyl-9-oxo-1,10-diazatricyclo[6.4.0.0^2,6]dodeca-2(6),7-dien-10-yl}-3-(hydroxymethyl)pyridin-4-yl)-1-methyl-2-oxo-1,2-dihydropyridin-3-yl]amino}pyridin-2-yl)oxy]ethyl}propanamide] | 9.02 |

Source: patent US9260415B2, “Heteroaryl pyridone and aza-pyridone compounds with electrophilic functionality” (Genentech, Inc., priority 2013, dated 2016)
